Assay results reported in US11377441B2, “Covalent inhibitors of KRAS” (Araxes Pharma LLC, priority 2017, dated 2022).

Target: T1, KRAS G12C 1-169, his-tagged protein, GDP-loaded (Homo sapiens, UniProt P01116, G12C)
T1 construct: KRAS G12C 1-169, his-tagged protein, GDP-loaded
Experiment: Biochemical assay: covalent modification of KRAS G12C measured by mass spectrometry (RapidFire/TOF or Q-Exactive)
Assay type: binding
Conditions: covalent binding to (modification of) KRAS G12C after a ten minute incubation period
Method in brief: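 Intact-mass readout (TOF or Q-Exactive, charge-envelope deconvolution) gives percent covalent adduct from modified and unmodified species. Compound at 10, 30 or 100 μM was incubated at room temperature for 10 min to 24 h with 2 μM or 0.5 μM GDP-bound KRAS G12C 1-169 in Hepes/NaCl/MgCl2 buffer, then acid-quenched.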

Question: How did the Binding % turn out when `C=CC(=O)N1C[C@H](C)N(c2nc(OC[C@H]3COCCN3C)nc3c(F)c(-c4c(C)ccc5[nH]nc(C6CC6)c45)c(Cl)cc23)C[C@H]1C` [Compound 180, 1-((2R,5S)-4-(6-chloro-7-(3-cyclopropyl-5-methyl-1H-indazol-4-yl)-8-fluoro-2-(((R)-4-methymorpholin-3-yl)methoxy)quinazolin-4-yl)-2,5-dimethylpiperazin-1-yl)prop-2-en-1-one] was run?
Answer: ++ (++ indicates binding activity from 50 to 80%)

Question: Which Binding % does the source give for `C=CC(=O)N1C[C@H](C)N(c2nc(OC[C@H]3COCCN3C)nc3c(F)c(-c4c(C)ccc5[nH]nc(C)c45)c(Cl)cc23)C[C@H]1C` [Compound 181, 1-((2R,5S)-4-(6-chloro-7-(3,5-dimethyl-1H-indazol-4-yl)-8-fluoro-2-(((R)-4-methylmorpholin-3-yl)methoxy)quinazolin-4-yl)-2,5-dimethylpiperazin-1-yl)prop-2-en-1-one] here?
Answer: + (+ indicates binding activity greater than 0% and up to 50%)

Question: For `C=CC(=O)N1C[C@H](C)N(c2nc(OC[C@@H]3COCCN3C)nc3c(F)c(-c4c(C)ccc5cnn(C)c45)c(Cl)cc23)C[C@H]1C` [Compound 182, 1-((2R,5S)-4-(6-chloro-7-(1,6-dimethyl-1H-indazol-7-yl)-8-fluoro-2-(((S)-4-methylmorpholin-3-yl)methoxy)quinazolin-4-yl)-2,5-dimethylpiperazin-1-yl)prop-2-en-1-one], which Binding % is on record?
Answer: ++ (++ indicates binding activity from 50 to 80%)

Question: With `C=CC(=O)N1C[C@H](C)N(c2nc(OC[C@@H]3COCCN3C)nc3c(F)c(-c4c(C)ccc5[nH]nc(C6CC6)c45)c(Cl)cc23)C[C@H]1C` [Compound 183, 1-((2R,5S)-4-(6-chloro-7-(3-cyclopropyl-5-methyl-1H-indazol-4-yl)-8-fluoro-2-(((S)-4-methylmorpholin-3-yl)methoxy)quinazolin-4-yl)-2,5-dimethylpiperazin-1-yl)prop-2-en-1-one] as the compound, how does the Binding % read?
Answer: +++ (+++ indicates binding activity greater than 80%)

Question: Which Binding % does the source give for `C=CC(=O)N1C[C@H](C)N(c2nc(OC[C@@H]3COCCN3C)nc3c(F)c(-c4c(C)ccc5[nH]nc(C)c45)c(Cl)cc23)C[C@H]1C` [Compound 184, 1-((2R,5S)-4-(6-chloro-7-(3,5-dimethyl-1H-indazol-4-yl)-8-fluoro-2-(((S)-4-methylmorpholin-3-yl)methoxy)quinazolin-4-yl)-2,5-dimethylpiperazin-1-yl)prop-2-en-1-one] here?
Answer: +++ (+++ indicates binding activity greater than 80%)

Question: For `C=CC(=O)N1C[C@H](C)N(c2nc(OC[C@@H]3CCCN3C)nc3c(F)c(-c4c(C)ccc5[nH]nc(C)c45)c(Cl)cc23)C[C@H]1C` [Compound 185, 1-((2R,5S)-4-(6-chloro-7-(3,5-dimethyl-1H-indazol-4-yl)-8-fluoro-2-(((S)-1-methylpyrrolidin-2-yl)methoxy)quinazolin-4-yl)-2,5-dimethylpiperazin-1-yl)prop-2-en-1-one], which Binding % is on record?
Answer: +++ (+++ indicates binding activity greater than 80%)

Question: How did the Binding % turn out when `C=CC(=O)N1C[C@H](C)N(c2nc(OC[C@H]3CN(C)CCO3)nc3c(F)c(-c4c(C)ccc5cnn(C)c45)c(Cl)cc23)C[C@H]1C` [Compound 186, 1-((2R,5S)-4-(6-chloro-7-(1,6-dimethyl-1H-indazol-7-yl)-8-fluoro-2-(((R)-4-methylmorpholin-2-yl)methoxy)quinazolin-4-yl)-2,5-dimethylpiperazin-1-yl)prop-2-en-1-one] was run?
Answer: +++ (+++ indicates binding activity greater than 80%)

Question: Which Binding % does the source give for `C=CC(=O)N1C[C@H](C)N(c2nc(OC[C@@H]3CN(C)CCO3)nc3c(F)c(-c4c(C)ccc5[nH]nc(C6CC6)c45)c(Cl)cc23)C[C@H]1C` [Compound 187, 1-((2R,5S)-4-(6-chloro-7-(3-cyclopropyl-5-methyl-1H-indazol-4-yl)-8-fluoro-2-(((S)-4-methylmorpholin-2-yl)methoxy)quinazolin-4-yl)-2,5-dimethylpiperazin-1-yl)prop-2-en-1-one] here?
Answer: +++ (+++ indicates binding activity greater than 80%)

Question: How did the Binding % turn out when `C=CC(=O)N1C[C@H](C)N(c2nc(OC[C@@H]3CN(C)CCO3)nc3c(F)c(-c4c(C)ccc5[nH]nc(C)c45)c(Cl)cc23)C[C@H]1C` [Compound 188, 1-((2R,5S)-4-(6-chloro-7-(3,5-dimethyl-1H-indazol-4-yl)-8-fluoro-2-(((S)-4-methylmorpholin-2-yl)methoxy)quinazolin-4-yl)-2,5-dimethylpiperazin-1-yl)prop-2-en-1-one] was run?
Answer: +++ (+++ indicates binding activity greater than 80%)

Question: `C=CC(=O)N1C[C@H](C)N(c2nc(OC[C@H]3CN(C)CCO3)nc3c(F)c(-c4c(C)ccc5[nH]nc(C6CC6)c45)c(Cl)cc23)C[C@H]1C` [Compound 189, 1-((2R,5S)-4-(6-chloro-7-(3-cyclopropyl-5-methyl-1H-indazol-4-yl)-8-fluoro-2-(((R)-4-methylmorpholiln-2-yl)methoxy)quinazolin-4-yl)-2,5-dimethylpiperazin-1-yl)prop-2-en-1-one] was tested. Which Binding % did it give?
Answer: +++ (+++ indicates binding activity greater than 80%)

Question: How did the Binding % turn out when `C=CC(=O)N1C[C@H](C)N(c2nc(OC[C@H]3CN(C)CCO3)nc3c(F)c(-c4c(C)ccc5[nH]nc(C)c45)c(Cl)cc23)C[C@H]1C` [Compound 190, 1-((2R,5S)-4-(6-chloro-7-(3,5-dimethyl-1H-indazol-4-yl)-8-fluoro-2-(((R)-4-methylmorpholin-2-yl)methoxy)quinazolin-4-yl)-2,5-dimethylpiperazin-1-yl)prop-2-en-1-one] was run?
Answer: +++ (+++ indicates binding activity greater than 80%)

Question: Which Binding % does the source give for `C=CS(=O)(=O)N1C[C@H](C)N(c2nc(N3CC(N(C)C)C3)nc3c(F)c(-c4c(C)ccc5cnn(C)c45)c(Cl)cc23)C[C@H]1C` [Compound 191, 1-(6-chloro-7-(1,6-dimethyl-1H-indazol-7-yl)-4-((2S,5R)-2,5-dimethyl-4-(vinylsulfonyl)piperazin-1-yl)-8-fluoroquinazolin-2-yl)-N,N-dimethylazetidin-3-amine] here?
Answer: + (+ indicates binding activity greater than 0% and up to 50%)

Question: `C=CC(=O)N1C[C@H](C)N(c2nc(N3CC(N(C)C)C3)nc3c(F)c(-c4c(C)ccc5[nH]nc(C)c45)c(C(F)(F)F)cc23)C[C@H]1C` [Compound 192, 1-((2R,5S)-4-(7-(3,5-dimethyl-1H-indazol-4-yl)-2-(3-(dimethylamino)azetidin-1-yl)-8-fluoro-6-(trifluoromethyl)quina-zolin-4-yl)-2,5-dimethylpiperazin-1-yl)prop-2-en-1-one] was tested. Which Binding % did it give?
Answer: +++ (+++ indicates binding activity greater than 80%)

Question: Which Binding % does the source give for `C=CC(=O)N1C[C@H](C)N(c2nc(N3CC(N(C)C)C3)nc3c(F)c(-c4c(C)ccc5[nH]nc(C6CC6)c45)c(C(F)(F)F)cc23)C[C@H]1C` [Compound 193, 1-((2R,5S)-4-(7-(3-cyclopropyl-5-methyl-1H-indazol-4-yl)-2-(3-(dimethylamino)azetidin-1-yl)-8-fluoro-6-(trifluoromethyl)quina-zolin-4-yl)-2,5-dimethylpiperazin-1-yl)prop-2-en-1-one] here?
Answer: +++ (+++ indicates binding activity greater than 80%)

Question: Which Binding % does the source give for `C=CS(=O)(=O)N1C[C@H](C)N(c2nc(N3CC(N(C)C)C3)nc3c(F)c(-c4c(C)ccc5[nH]nc(C)c45)c(Cl)cc23)C[C@H]1C` [Compound 194, 1-(6-chloro-7-(3,5-dimethyl-1H-indazol-4-yl)-4-((2S,5R)-2,5-dimethyl-4-(vinylsulfonyl)piperazin-1-yl)-8-fluoroquinazolin-2-yl)-N,N-dimethylazetidin-3-amine] here?
Answer: + (+ indicates binding activity greater than 0% and up to 50%)

Question: With `C=CC(=O)N1C[C@H](C)N(c2nc(N3CC(N(C)C)C3)nc3c(F)c(-c4c(C)ccc5c(Cl)nn(C)c45)c(Cl)cc23)C[C@H]1C` [Compound 195, 1-((2R,5S)-4-(6-chloro-7-(3-chloro-1,6-dimethyl-1H-indazol-7-yl)-2-(3-(dimethylamino)azetidin-1-yl)-8-fluoroquinazolin-4-yl)-2,5-dimethylpiperazin-1-yl)prop-2-en-1-one] as the compound, how does the Binding % read?
Answer: + (+ indicates binding activity greater than 0% and up to 50%)

Question: Which Binding % does the source give for `C=CC(=O)N1C[C@H](C)N(c2nc(OC[C@H]3CCN(C)C3)nc3c(F)c(-c4c(C)ccc5cnn(C)c45)c(Cl)cc23)C[C@H]1C` [Compound 196, 1-((2R,5S)-4-(6-chloro-7-(1,6-dimethyl-1H-indazol-7-yl)-8-fluoro-2-(((S)-1-methylpyrrolidin-3-yl)methoxy)quinazolin-4-yl)-2,5-dimethylpiperazin-1-yl)prop-2-en-1-one] here?
Answer: ++ (++ indicates binding activity from 50 to 80%)

Question: `C=CC(=O)N1C[C@H](C)N(c2nc(OC[C@@H]3C[C@H](OC)CN3C)nc3c(F)c(-c4c(C)ccc5cnn(C)c45)c(Cl)cc23)C[C@H]1C` [Compound 197, 1-((2R,5S)-4-(6-chloro-7-(1,6-dimethyl-1H-indazol-7-yl)-8-fluoro-2-(((2S,4S)-4-methoxy-1-methylpyrrolidin-2-yl)methoxy)quinazolin-4-yl)-2,5-dimethylpiperazin-1-yl)prop-2-en-1-one] was tested. Which Binding % did it give?
Answer: +++ (+++ indicates binding activity greater than 80%)

Question: Which Binding % does the source give for `C=CC(=O)N1C[C@H](C)N(c2nc(OC[C@H]3CCN(C)C3)nc3c(F)c(-c4c(C)ccc5cnn(C6CC6)c45)c(Cl)cc23)C[C@H]1C` [Compound 198, 1-((2R,5S)-4-(6-chloro-7-(1-cyclopropyl-6-methyl-1H-indazol-7-yl)-8-fluoro-2-(((S)-1-methylpyrrolidin-3-yl)methoxy)quinazolin-4-yl)-2,5-dimethylpiperazin-1-yl)prop-2-en-1-one] here?
Answer: ++ (++ indicates binding activity from 50 to 80%)

Question: How did the Binding % turn out when `C=CC(=O)N1C[C@H](C)N(c2nc(OC[C@@H]3C[C@H](OC)CN3C)nc3c(F)c(-c4c(C)ccc5cnn(C6CC6)c45)c(Cl)cc23)C[C@H]1C` [Compound 199, 1-((2R,5S)-4-(6-chloro-7-(1-cyclopropyl-6-methyl-1H-indazol-7-yl)-8-fluoro-2-(((2S,4S)-4-methoxy-1-methylpyrrolidin-2-yl)methoxy)quinazolin-4-yl)-2,5-dimethylpiperazin-1-yl)prop-2-en-1-one] was run?
Answer: +++ (+++ indicates binding activity greater than 80%)
